In article PMC3974779, “Pterostilbene-Isothiocyanate Conjugate Suppresses Growth of Prostate Cancer Cells Irrespective of Androgen Receptor Status” (PLoS ONE, 2014):

Tests used:
PC-3 cells = experiment: MTT cytotoxicity assay; assay type: cell-based; details: Homo sapiens; PC-3, MTT, 24 h exposure, mean ± SEM; read-out: IC50 value (50% growth inhibition)
Experimental: (§1) MTT assay was carried out as described previously. In brief, 5×10^3 cells in 200 μl of medium were seeded in 96-well plates (Griener, Germany). After 24 h, the cells were treated with various concentrations (0.1, 1, 10, 100 and 1000 μM) of RESV, PTER and conjugate. The control cells were treated with 0.1% DMSO (vehicle control). The cultured cells were assayed after 24 h by adding 20 μl of 5 mg/ml MTT followed by incubating at 37°C for 4 h. The MTT containing media was then aspirated and 200 μl DMSO (Himedia, Mumbai, India) was added to dissolve the formazone crystals. The optical density (OD) was measured at 570 nm using ELISA plate reader (Fluostar optima, BMG Labtech, Germany). The percentage inhibition was calculated as: [drawing 1]
(§2) The dose response curve and IC50 values were obtained by nonlinear regression analysis [non-linear regression (sigmoidal dose response with variable slope)] using Graph Pad Prism, version 5.02 software (Graph Pad Software Inc., CA, USA).

LNCaP cells = experiment: MTT cytotoxicity assay; assay type: cell-based; details: Homo sapiens, 24 h, 24 h exposure, mean ± SEM, read-out: IC50 value (50% growth inhibition)
Experimental: as §1, §2

COS-1 cells = experiment: MTT cytotoxicity assay; assay type: cell-based; details: Chlorocebus aethiops, COS-1 noncancer cells, 24 h exposure, read-out: IC50 value (50% growth inhibition)
Experimental: as §1, §2

CHO cells = experiment: MTT cytotoxicity assay; assay type: cell-based; details: Cricetulus griseus, CHO noncancer cells, 24 h exposure, read-out: IC50 value (50% growth inhibition)
Experimental: as §1, §2

SRC-1 in LNCaP cells = experiment: Immunoblot of AR co-activators; assay type: cell-based, human
Experimental: (§3) The whole-cell lysates were prepared as described previously in immunoprecipitation (IP) buffer containing 50 mM Tris-HCl (pH 8.0), 150 mM NaCl, 5 mM EDTA, and 1% Triton X-100. Protein aliquots of 500 μg were then incubated overnight at 4°C using 2 μg of antibody directed against AR. The Protein A-Cl Agarose beads were then added and further incubated for 6 h at 4°C. The immunoprecipitates were washed four times with the IP buffer and the immunocomplexes were recovered by boiling in SDS sample buffer. Finally the western blot was carried out using anti-AR, anti-SRC-1 and anti-GRIP-1 antibodies (Santa Cruz, CA, USA). For western blot analysis, the cell lysates were prepared after harvesting them in lysis buffer. About 40 μg of total protein was electrophoresed by 12% SDS-PAGE, and the western blotting was carried out using standard protocol. In brief, the analyzed proteins were transferred to nylon membranes. The blots were then blocked with TBST buffer (20 mM Tris-Cl, pH 7.5, 150 mM sodium chloride, 0.05% Tween-20) containing 5% skim milk powder. They were then washed with TBST buffer and incubated overnight at 4°C with the same buffer containing appropriate amounts of primary antibodies: caspase-3, Bax, Bcl-2, Akt, p-Akt, ERK, p-ERK, AR, SRC-1, GRIP-1 (1∶500) and β-actin (1∶1000). The blots were then washed and incubated with anti-rabbit secondary antibody (1∶20,000) conjugated with horseradish peroxidase (HRP). Color development was performed in the dark by using an ECL kit (Amersham, GE Healthcare, Buckinghamshire, UK). The developed blots were subjected to densitometric analysis by ImageJ 1.43 software (NIH, USA) using β-actin as internal control.

GRIP-1 in LNCaP cells = experiment: Immunoblot of AR co-activators; assay type: cell-based, human
Experimental: as §3

[1] = target: T1, androgen receptor in LNCaP cells (Homo sapiens, UniProt P10275, T878A); experiment: AR transactivation luciferase assay with/without exogenous SRC-1 and GRIP-1; assay type: cell-based; details: 10 μM with DHT
T1 construct: LNCaP cells, that express endogenous AR; endogenous in cells; host or cells: LNCaP
T1 sequence (P10275 1-920 T878A): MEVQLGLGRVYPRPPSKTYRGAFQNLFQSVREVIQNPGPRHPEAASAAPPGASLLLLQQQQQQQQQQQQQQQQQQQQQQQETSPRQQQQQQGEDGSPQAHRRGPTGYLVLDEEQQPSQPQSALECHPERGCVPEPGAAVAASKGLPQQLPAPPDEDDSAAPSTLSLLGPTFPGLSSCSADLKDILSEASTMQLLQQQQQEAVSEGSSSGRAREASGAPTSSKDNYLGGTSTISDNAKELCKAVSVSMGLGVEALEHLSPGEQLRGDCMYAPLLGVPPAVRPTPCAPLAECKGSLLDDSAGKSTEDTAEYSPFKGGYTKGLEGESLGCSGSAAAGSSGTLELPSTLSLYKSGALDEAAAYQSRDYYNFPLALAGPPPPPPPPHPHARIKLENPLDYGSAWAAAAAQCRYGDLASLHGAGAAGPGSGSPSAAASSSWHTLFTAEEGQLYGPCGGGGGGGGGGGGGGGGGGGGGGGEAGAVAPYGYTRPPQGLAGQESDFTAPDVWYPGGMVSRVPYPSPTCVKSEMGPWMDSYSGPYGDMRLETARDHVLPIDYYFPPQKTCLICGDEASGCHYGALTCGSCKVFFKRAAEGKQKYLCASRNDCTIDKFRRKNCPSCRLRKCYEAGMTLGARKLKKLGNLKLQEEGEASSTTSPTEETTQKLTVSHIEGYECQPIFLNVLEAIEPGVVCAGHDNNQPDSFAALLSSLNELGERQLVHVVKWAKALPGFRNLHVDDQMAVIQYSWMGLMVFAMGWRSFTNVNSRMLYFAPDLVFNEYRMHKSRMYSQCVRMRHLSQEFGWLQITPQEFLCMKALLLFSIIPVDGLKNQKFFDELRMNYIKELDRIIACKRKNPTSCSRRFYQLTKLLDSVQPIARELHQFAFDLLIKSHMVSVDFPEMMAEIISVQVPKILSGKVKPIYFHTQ
Experimental: The LNCaP cells were grown and transiently transfected with pMMTV-neomycin-luciferase plasmid (300 ng/10^5 cells) in RPMI media supplemented with 10% FBS using polyfect transfection reagent (Qiagen, CA, USA) according to manufacturer’s instructions. […] In case of PC-3 cells, they were similarly transfected, but in addition to pMMTV-neomycin-luciferase construct, they were also transfected with pSG5-hAR-puro plasmid (full length hAR in pSG5 expression vector) in the ratio of 5∶1 as indicated above. For experiments involving co-regulators, 50 ng of co-activator plasmids (25 ng each of GRIP-1 and SRC-1) along with pMMTV-neo-luc (250 ng) were transfected to LNCaP cells. To evaluate the transfection efficiency, 500 ng/105 cells of the SV40 promoter-Renilla luciferase (pRL-SV40) vector (Promega Madison, USA) were co-transfected as internal control. […] The values of luciferase for each lysates were normalized to the Renilla luciferase activity.

- AR transactivation (DHT alone = 100%) ([1]; with exogenous SRC-1 and GRIP-1): 102%
- AR transactivation (DHT alone = 100%) ([1]; without exogenous co-activators): 64%
SMILES: COc1cc(/C=C/c2ccc(O)c(/C=N/NC(N)=S)c2)cc(OC)c1 [conjugate, Pterostilbene-isothiocyanate conjugate]
- IC50 (PC-3 cells): 45 ± 1.5 µM
- IC50 (LNCaP cells): 40 ± 1.12 µM
- IC50 (COS-1 cells): > 100 µM
- IC50 (CHO cells): > 100 µM
- decrease in expression of SRC-1 protein (SRC-1 in LNCaP cells; 10 μM): 1.4 folds
- decrease in expression of SRC-1 protein (SRC-1 in LNCaP cells; 20 μM): 2.6 folds
- reduction of GRIP-1 level (GRIP-1 in LNCaP cells; 10 μM): 1.7 folds
- reduction of GRIP-1 level (GRIP-1 in LNCaP cells; 20 μM): 2.6 folds
